Reference: patent publication US12157746B2, “Tetrahydro-1H-pyrazino[2,1-a]isoindolylquinoline compounds for the treatment of autoimmune disease” (F. HOFFMANN-LA ROCHE AG, priority 2018, dated 2024)

Target: T1, human TLR7 (Homo sapiens, UniProt Q9NYK1)
T1 sequence (Q9NYK1 27-1049): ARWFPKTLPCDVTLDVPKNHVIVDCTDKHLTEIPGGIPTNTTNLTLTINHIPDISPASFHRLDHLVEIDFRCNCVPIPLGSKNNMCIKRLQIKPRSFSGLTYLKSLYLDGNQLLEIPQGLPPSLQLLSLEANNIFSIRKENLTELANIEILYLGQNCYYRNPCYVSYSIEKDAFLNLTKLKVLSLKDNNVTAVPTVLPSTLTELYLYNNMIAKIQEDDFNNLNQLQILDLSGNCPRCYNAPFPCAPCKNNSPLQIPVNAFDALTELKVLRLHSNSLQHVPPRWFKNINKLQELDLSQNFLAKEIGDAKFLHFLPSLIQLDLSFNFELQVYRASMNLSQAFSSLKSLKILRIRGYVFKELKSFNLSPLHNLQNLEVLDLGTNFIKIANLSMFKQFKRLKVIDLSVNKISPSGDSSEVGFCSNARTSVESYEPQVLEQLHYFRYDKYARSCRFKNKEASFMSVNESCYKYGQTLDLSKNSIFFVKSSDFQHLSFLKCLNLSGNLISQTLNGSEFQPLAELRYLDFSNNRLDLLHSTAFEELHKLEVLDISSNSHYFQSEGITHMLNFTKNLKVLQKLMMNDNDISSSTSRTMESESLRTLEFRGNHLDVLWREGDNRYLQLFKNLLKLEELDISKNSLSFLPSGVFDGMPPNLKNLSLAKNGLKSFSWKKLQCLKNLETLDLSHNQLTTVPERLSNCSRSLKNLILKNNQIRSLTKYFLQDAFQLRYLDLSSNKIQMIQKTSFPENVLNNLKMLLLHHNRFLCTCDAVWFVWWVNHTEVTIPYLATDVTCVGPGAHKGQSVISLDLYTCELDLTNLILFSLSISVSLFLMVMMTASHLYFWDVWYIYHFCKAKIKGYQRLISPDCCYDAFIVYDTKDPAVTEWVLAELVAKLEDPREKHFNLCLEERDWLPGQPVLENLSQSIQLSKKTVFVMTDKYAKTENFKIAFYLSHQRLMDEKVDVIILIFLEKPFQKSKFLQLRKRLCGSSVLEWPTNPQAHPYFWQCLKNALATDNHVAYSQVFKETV
Assay: HEK293-Blue-hTLR-7 cells assay
Type: cell-based
Conditions: HEK293-Blue-hTLR7 cells, R848 stimulation, 20 hrs, SEAP reporter; read-out: HEK/hTLR7 IC50
Description: HEK293-Blue-hTLR-7 Cells Assay:
A stable HEK293-Blue-hTLR-7 cell line was purchased from InvivoGen (Cat. #: hkb-htlr7, San Diego, California, USA). These cells were originally designed for studying the stimulation of human TLR7 by monitoring the activation of NF-κB. A SEAP (secreted embryonic alkaline phosphatase) reporter gene was placed under the control of the IFN-β minimal promoter fused to five NF-κB and AP-1-binding sites. The SEAP was induced by activating NF-κB and AP-1 via stimulating HEK-Blue hTLR7 cells with TLR7 ligands. Therefore the reporter expression was declined by TLR7 antagonist under the stimulation of a ligand, such as R848 (Resiquimod), for incubation of 20 hrs. The cell culture supernatant SEAP reporter activity was determined using QUANTI-Blue™ kit (Cat. #: rep-qb1, Invivogen, San Diego, Ca. USA) at a wavelength of 640 nm, a detection medium that turns purple or blue in the presence of alkaline phosphatase.
HEK293-Blue-hTLR7 cells were incubated at a density of 250,000˜450,000 cells/mL in a volume of 170 μL in a 96-well plate in Dulbecco's Modified Eagle's medium (DMEM) containing 4.5 g/L glucose, 50 U/mL penicillin, […], […], 2 mM L-glutamine, 10% (v/v) heat-inactivated fetal bovine serum with addition of 20 μL test compound 1n a serial dilution in the presence of final DMSO at 1% and 10 μL of 20 uM R848 in above DMEM, perform incubation under 37° C. in a CO2 incubator for 20 hrs. Then 20 μL of the supernatant from each well was incubated with 180 μL Quanti-blue substrate solution at 37° C. for 2 hrs and the absorbance was read at 620-655 nm using a spectrophotometer. The signaling pathway that TLR7 activation leads to downstream NF-κB activation has been widely accepted, and therefore similar reporter assay was modified for evaluating TLR7 antagonist.

`C[C@@H]1CN(c2ccc(C#N)c3ncccc23)C[C@@H]2c3ccc(N4C[C@H](N)[C@@H](O)C4)cc3CN12` [Example 40A, 5-[(4R,10bS)-8-[(3S,4S)-3-amino-4-hydroxy-pyrrolidin-1-yl]-4-methyl-3,4,6,10b-tetrahydro-1H-pyrazino[2,1-a]isoindol-2-yl]quinoline-8-carbonitrile] and `C[C@@H]1CN(c2ccc(C#N)c3ncccc23)C[C@@H]2c3ccc(N4C[C@@H](N)[C@H](O)C4)cc3CN12` (single isomer, unassigned) [Example 40B] are within 1.5-fold of each other in IC50: 3.7 nM for the first, 4.3 nM for the second.

Compared with `C[C@@H]1CN(c2ccc(C#N)c3ncccc23)C[C@@H]2c3ccc(N4CCNC[C@@H]4CO)cc3CN12` [Example 10, 5-[(4R,10bS)-8-[(2R)-2-(hydroxymethyl)piperazin-1-yl]-4-methyl-3,4,6,10b-tetrahydro-1H-pyrazino[2,1-a]isoindol-2-yl]quinoline-8-carbonitrile], `C[C@@H]1CN(c2ccc(C#N)c3ncccc23)C[C@@H]2c3ccc(N4CCNC[C@H]4CO)cc3CN12` [Example 11, 5-[(4R,10S)-8-[(2S)-2-(hydroxymethyl)piperazin-1-yl]-4-methyl-3,4,6,10b-tetrahydro-1H-pyrazino[2,1-a]isoindol-2-yl]quinoline-8-carbonitrile] is higher in IC50: less than 3.2 nM for the first, 3.4 nM for the second. The first is the more potent here.

First: CO[C@@H]1CN(c2ccc3c(c2)CN2[C@H](C)CN(c4ccc(C#N)n5nccc45)C[C@H]32)CC[C@@H]1N [Example 105, 4-[(4R,10bS)-8-[(3R,4S)-4-amino-3-methoxy-1-piperidyl]-4-methyl-3,4,6,10b-tetrahydro-1H-pyrazino[2,1-a]isoindol-2-yl]pyrazolo[1,5-a]pyridine-7-carbonitrile]
Second: C[C@@H]1CN(c2ccc(C#N)n3nccc23)C[C@@H]2c3ccc(N4CC[C@@H](N)C4)cc3CN12 [Example 96, 4-[(4R,10bS)-8-[(3R)-3-aminopyrrolidin-1-yl]-4-methyl-3,4,6,10b-tetrahydro-1H-pyrazino[2,1-a]isoindol-2-yl]pyrazolo[1,5-a]pyridine-7-carbonitrile]
The IC50 of the first is 6.7-fold lower: 4.9 nM for the first, 32.6 nM for the second.

First: [2H]c1ccc2c(N3C[C@@H](C)N4Cc5cc(N[C@H]6CNC[C@H]6F)ccc5[C@H]4C3)ccc(C#N)c2n1 [Example 91, 5-[(4R,10bS)-8-[[(3S,4R)-4-fluoropyrrolidin-3-yl]amino]-4-methyl-3,4,6,10b-tetrahydro-1H-pyrazino[2,1-a]isoindol-2-yl]-2-deuterio-quinoline-8-carbonitrile]
Second: C[C@@H]1CN(c2ccc(C#N)n3nccc23)C[C@@H]2c3ccc(N[C@H]4CNC[C@H]4F)cc3CN12 [Example 98, 4-[(4R,10bS)-8-[[(3S,4R)-4-fluoropyrrolidin-3-yl]amino]-4-methyl-3,4,6,10b-tetrahydro-1H-pyrazino[2,1-a]isoindol-2-yl]pyrazolo[1,5-a]pyridine-7-carbonitrile]
The IC50 of the first is 14-fold lower: 1.7 nM for the first, 23.2 nM for the second. The first is the more potent here.

`CO[C@@H]1CN(c2ccc3c(c2)CN2[C@H](C)CN(c4ccc(C#N)n5ncc(F)c45)C[C@H]32)C[C@H]1N` [Example 113, 4-[(4R,10bS)-8-[(3R,4R)-3-amino-4-methoxy-pyrrolidin-1-yl]-4-methyl-3,4,6,10b-tetrahydro-1H-pyrazino[2,1-a]isoindol-2-yl]-3-fluoro-pyrazolo[1,5-a]pyridine-7-carbonitrile] and `C[C@@H]1CN(c2ccc(C#N)c3ncccc23)C[C@@H]2c3ccc(N4C[C@@H](N)[C@@H](F)C4)cc3CN12` [Example 47, 5-[(4R,10bS)-8-[(3R,4S)-3-amino-4-fluoro-pyrrolidin-1-yl]-4-methyl-3,4,6,10b-tetrahydro-1H-pyrazino[2,1-a]isoindol-2-yl]quinoline-8-carbonitrile] are within 1.5-fold of each other in IC50: 6 nM for the first, 4.8 nM for the second.

Compared with `CN[C@@H]1CN(c2ccc3c(c2)CN2[C@H](C)CN(c4ccc(C#N)c5ncccc45)C[C@H]32)C[C@H]1O` [Example 43, 5-[(4R,10bS)-4-methyl-8-[(3R,4R)-3-hydroxy-4-(methylamino)pyrrolidin-1-yl]-3,4,6,10b-tetrahydro-1H-pyrazino[2,1-a]isoindol-2-yl]quinoline-8-carbonitrile], `C[C@@H]1CN(c2ccc(C#N)c3ncccc23)C[C@@H]2c3ccc(N4CC(N)C4)cc3CN12` [Example 22, 5-[(4R,10bS)-8-(3-aminoazetidin-1-yl)-4-methyl-3,4,6,10b-tetrahydro-1H-pyrazino[2,1-a]isoindol-2-yl]quinoline-8-carbonitrile] is lower in IC50: 4 nM for the first, less than 3.2 nM for the second.

Compared with `C[C@@H]1CN(c2ccc(C#N)c3ncccc23)C[C@@H]2c3ccc(N4CCN[C@H](CO)C4)cc3CN12` [Example 12, 5-[(4R,10bS)-8-[(3S)-3-(hydroxymethyl)piperazin-1-yl]-4-methyl-3,4,6,10b-tetrahydro-1H-pyrazino[2,1-a]isoindol-2-yl]quinoline-8-carbonitrile], `C[C@@H]1CN(c2ccc(C#N)c3ncccc23)C[C@@H]2c3ccc(N4CCOCC(N)C4)cc3CN12` (stereo partly drawn) [Example 54, 5-[(4R,10bS)-8-(6-amino-1,4-oxazepan-4-yl)-4-methyl-3,4,6,10b-tetrahydro-1H-pyrazino[2,1-a]isoindol-2-yl]quinoline-8-carbonitrile] is higher in IC50: less than 3.2 nM for the first, 4 nM for the second. The first is the more potent here.

Compared with `C[C@@H]1CN(c2ccc(C#N)c3ncccc23)C[C@@H]2c3ccc(N4CC5(CNC5)C4)cc3CN12` [Example 36, 5-[(4R,10bS)-8-(2,6-diazaspiro[3.3]heptan-2-yl)-4-methyl-3,4,6,10b-tetrahydro-1H-pyrazino[2,1-a]isoindol-2-yl]quinoline-8-carbonitrile], `C[C@@H]1CN(c2ccc(C#N)c3ncccc23)C[C@@H]2c3ccc(N4CC5(CCN5)C4)cc3CN12` [Example 37, 5-[(4R,10bS)-8-(1,6-diazaspiro[3.3]heptan-6-yl)-4-methyl-3,4,6,10b-tetrahydro-1H-pyrazino[2,1-a]isoindol-2-yl]quinoline-8-carbonitrile] is lower in IC50: 3.3 nM for the first, less than 3.2 nM for the second. The second is the more potent here.

Compared with `C[C@@H]1CN(c2ccc(C#N)c3ncccc23)C[C@@H]2c3ccc(N4C[C@@H](N)[C@](C)(O)C4)cc3CN12` [Example 45, 5-[(4R,10bS)-4-methyl-8-[trans-(3R,4R)-4-amino-3-hydroxy-3-methyl-pyrrolidin-1-yl]-3,4,6,10b-tetrahydro-1H-pyrazino[2,1-a]isoindol-2-yl]quinoline-8-carbonitrile], `C[C@@H]1CN(c2ccc(C#N)c3ncccc23)C[C@@H]2c3ccc(N4CCC(C)(N)CC4)cc3CN12` [Example 51, 5-[(4R,10bS)-8-(4-amino-4-methyl-1-piperidyl)-4-methyl-3,4,6,10b-tetrahydro-1H-pyrazino[2,1-a]isoindol-2-yl]quinoline-8-carbonitrile] is 3.2-fold lower in IC50: 4.5 nM for the first, 1.4 nM for the second.

Compared with `C[C@@H]1CN(c2ccc(C#N)c3ncsc23)C[C@@H]2c3ccc(N4CCNCC4)cc3CN12` [Example 6, 7-[(4R,10bS)-4-methyl-8-piperazin-1-yl-3,4,6,10b-tetrahydro-1H-pyrazino[2,1-a]isoindol-2-yl]-1,3-benzothiazole-4-carbonitrile], `C[C@@H]1CN(c2ccc(C#N)c3ncccc23)C[C@@H]2c3ccc(N4C[C@@H](N)[C@](C)(O)C4)cc3CN12` [Example 45A, 5-[(4R,10bS)-8-[(3R,4R)-4-amino-3-hydroxy-3-methyl-pyrrolidin-1-yl]-4-methyl-3,4,6,10b-tetrahydro-1H-pyrazino[2,1-a]isoindol-2-yl]quinoline-8-carbonitrile] is higher in IC50: less than 3.2 nM for the first, 3.5 nM for the second. The first is the more potent here.
